This assay concerns the target AAK1 (Homo sapiens (Human), UniProt Q2M2I8). The assay is described as follows: In vitro AAK1 enzyme activity assay (ADP-Glo). It counts as biochemical. To be noted: read-out: Inhibitory activity against AAK1 IC50. The method, then:
Compound stock solution (concentration: 10 mM, dissolved in DMSO) was diluted with DMSO to 0.2 mM and then diluted with DMSO in 5-fold gradient to obtain compound solutions with 10 concentrations. Subsequently, the compound solutions with different concentrations were diluted 50-fold in 1×kinase reaction buffer (containing 40 mM Tris, 20 mM MgCl2, 0.1% BSA and 0.5 mM DTT) for later use. AAK1 (Signalchem, Cat #A01-11G-10) was diluted with 1×kinase reaction buffer to 2-fold the final concentration (final concentrations: 30 nM and 28 nM). AAK1 was added to a 384-well white plate at 2 μL/well, and the compounds were then added at 1 μL/well. The plate was sealed with a plate-sealing film, centrifuged at 1000 rpm for 30 seconds and then placed at room temperature for 10 minutes. A mixed solution of ATP (Promega, Cat #V914B) and substrate Micro2 (GenScript, Cat #PE0890) was formulated at 4-fold the final concentration (for AAK1, the corresponding final concentrations of ATP: 15 μM and 5 μM, and the corresponding final concentration of Micro2: 0.1 mg/mL). To the reaction plate was added the mixed solution of ATP and the substrate at 1 μL/well. The plate was sealed with a plate-sealing film and centrifuged at 1000 rpm for 30 seconds. The reaction was carried out at room temperature for 60 minutes (AAK1). ADP-Glo (Promega, Cat #V9102) was transferred to the 384-well plate at 4 μL/well and centrifugation was carried out at 1000 rpm for 1 minute. The mixture was incubated at 25° C. for 40 minutes. A detection solution was transferred to the 384-well plate at 8 μL/well and centrifugation was carried out at 1000 rpm for 1 minute. The resulting mixture was incubated at 25° C. for 40 minutes. The RLU (Relative luminescence unit) signal values were read using a Biotek multilable microplate reader and the percent inhibition was calculated according to the following formula: [1−(LUMcompound−LUMpositive control)/(LUMnegative control−LUMpositive control)]×100. IC50 values were calculated using Graphpad 7.0 software using a four-parameter non-linear fit equation.
In general terms: ADP-Glo first removes unused ATP, then detects ADP through luciferase.

Sequence of AAK1 (Q2M2I8 27-365): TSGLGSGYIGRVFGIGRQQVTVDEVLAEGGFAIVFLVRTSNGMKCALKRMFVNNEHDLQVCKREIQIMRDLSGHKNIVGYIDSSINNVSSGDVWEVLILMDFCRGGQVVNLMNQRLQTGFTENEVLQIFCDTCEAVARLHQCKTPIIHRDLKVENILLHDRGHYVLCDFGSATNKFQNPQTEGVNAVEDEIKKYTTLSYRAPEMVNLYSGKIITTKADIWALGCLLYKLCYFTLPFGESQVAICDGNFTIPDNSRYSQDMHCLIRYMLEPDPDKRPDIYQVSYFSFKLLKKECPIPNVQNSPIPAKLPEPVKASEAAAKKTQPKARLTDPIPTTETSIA

Usually IC50 stands for the concentration that gives 50% inhibition. `CC(C)(F)CC(C)(N)COc1ccc(-c2ccnc(C(F)F)c2)nc1C(F)F` (centres unmarked) [Compound 1, 1-((2′,6-bis(difluoromethyl)-[2,4′-bipyridin]-5-yl)oxy)-4-fluoro-2,4-dimethylpentan-2-amine]: the IC50 is 14.7 nM. Under `CC(N)(COc1ccc(-c2ccnc(C(F)F)c2)nc1C(F)F)CC1(C)CC1` (centres unmarked) [Compound 2, 1-((2′,6-bis(difluoromethyl)-[2,4′-bipyridin]-5-yl)oxy)-2-methyl-3-(1-methylcyclopropyl) propan-2-amine] stands 9.29 nM.

Regarding `C=C(C)C[C@](C)(N)COc1ccc(-c2ccnc(NC(C)=O)c2)cc1C#N` [Compound 5, (S)-N-(4-(4-((2-amino-2,4-dimethylpent-4-en-1-yl)oxy)-3-cyanophenyl)pyridin-2-yl)acetamide], the IC50 was 6.37 nM. Turning to `CC(=O)Nc1cc(-c2ccc(OC[C@@](C)(N)CC(C)(C)F)c(C#N)c2)ccn1` [Compound 6, (S)-N-(4-(4-((2-amino-4-fluoro-2,4-dimethylpentyl)oxy)-3-cyanophenyl)pyridin-2-yl)acetamide], the IC50 worked out at 11 nM. As to `C=C(C)C[C@](C)(N)COc1cnc(-c2ccnc(NC(=O)OC)c2)cc1C(F)(F)F` [Compound 7, Methyl-(S)-(5-((2-amino-2,4-dimethylpent-4-en-1-yl)oxy)-4-(trifluoromethyl) [2,4′-bipyridin]-2′-yl)carbamate], the 50% inhibitory concentration (IC50) was 13.8 nM.

Consider `C=C(C)C[C@](C)(N)COc1ccc(-c2ccnc(NC(=O)OC)c2)nc1C` [Compound 10, Methyl (S)-(5-((2-amino-2,4-dimethylpent-4-en-1-yl)oxy)-6-methyl-[2,4′-bipyridin]-2′-yl)carbamate], for which the IC50 worked out at 11.5 nM.

Take `C=C(C)C[C@](C)(N)COc1ccc(-c2ccnc(NC(C)=O)c2)nc1C(F)F` [Compound 15, (S)-N-(5-((2-amino-2,4-dimethylpent-4-en-1-yl)oxy)-6-(difluoromethyl)-[2,4′-bipyridin]-2′-yl)acetamide]: the IC50 amounted to 19.8 nM.

As for `CC(=O)Nc1cc(-c2ccc(OC[C@@](C)(N)CC(C)(C)F)c(C(F)F)n2)ccn1` [Compound 16, (S)-N-(5-((2-amino-4-fluoro-2,4-dimethylpentyl)oxy)-6-(difluoromethyl)-[2,4′-bipyridin]-2′-yl)acetamide], the IC50 was 22.3 nM. Consider `C=C(C)C[C@](C)(N)COc1ncc(-c2ccnc(NC(=O)OC)c2)cc1C(F)F` [Compound 17, (S)-methyl-(6-((2-amino-2,4-dimethylpent-4-en-1-yl)oxy)-5-(difluoromethyl)-[3,4′-bipyridin]-2′-yl)carbamate], for which the IC50 came out at 26.8 nM. The value for `COC(=O)Nc1cc(-c2cnc(OC[C@@](C)(N)CC(C)(C)F)c(C(F)F)c2)ccn1` [Compound 18, (S)-methyl-(6-((2-amino-4-fluoro-2,4-dimethylpentyl)oxy)-5-(difluoromethyl)-[3,4′-bipyridin]-2′-yl)carbamate] was 9.55 nM. Under `COC(=O)Nc1cc(-c2cc(C(F)F)c(OC[C@@](C)(N)CC(C)(C)F)cn2)ccn1` [Compound 20, Methyl (S)-(5-((2-amino-4-fluoro-2,4-dimethylpentyl)oxy)-4-(difluoromethyl)-[2,4′-bipyridin]-2′-yl)carbamate] stands 16.1 nM; under `NC1(COc2ccc(-c3ccnc(C(F)F)c3)nc2C(F)F)CCCC1` [Compound 22, 1-(((2′,6-bis(difluoromethyl)-[2,4′-bipyridin]-5-yl)oxy)methyl)cyclopentan-1-amine], 32.1 nM. For the compound `C=C(C)C[C@](C)(N)COc1ccc(-c2ccnc(NC(C)=O)c2)cc1C(N)=O` [Compound 23, (S)-5-(2-acetamidopyridin-4-yl)-2-((2-amino-2,4-dimethylpent-4-en-1-yl)oxy)benzamide], the IC50 worked out at 38.6 nM. In the case of `C=C(C)C[C@](C)(N)COc1ccc(-c2ccnc(NC(=O)C3CC(F)(F)C3)c2)cc1C#N` [Compound 24, (S)-N-(4-(4-((2-amino-2,4-dimethylpent-4-en-1-yl)oxy)-3-cyanophenyl)pyridin-2-yl)-3,3-difluorocyclobutane-1-carboxamide], the IC50 came out at 22.5 nM.

Values taken from US20240343720A1, “AAK1 INHIBITOR AND USE THEREOF” (Xizang Haisco Pharmaceutical Co., Ltd., priority 2021, published 2024).
